Measurements as given in US20250243219A1, “MACROCYCLIC COMPOUNDS AND USES THEREOF” (Cypralis Limited, priority 2022, published 2025).

Tests used:
cyclophilin D = cyclophilin D (Homo sapiens (Human), UniProt P30405); experiment: Functional peptidyl prolyl isomerase (PPIase) spectrophotometric assay, cyclophilin D; type: biochemical; conditions: second value of CypA/D cell; read-out: Ki CypD
Description: (§1) Cyclophilins are enzymes that catalyse the cis-trans isomerisation of peptide bonds to the amino acid proline. This event is important in many biological processes, including protein folding and signal transduction. […] The method to measure this activity and its inhibition is similar to that described by Jankowski (Analytical Biochemistry, 252, 2, 299-307 (1997)). The assay measures the cis to trans isomerisation of a peptide substrate catalysed by a PPlase enzyme using a UV/Vis spectrophotometer. This assay is a manual single cuvette-based assay. A first order rate equation is fitted to the absorbance data to obtain a rate constant. The catalytic rate is calculated from the enzymatic rate minus the background rate. The Ki (the concentration required to produce half maximum inhibition) for an inhibitor is obtained from the rate constant plotted against the inhibitor concentration. Typically, a 6-point dose response curve is obtained from duplicates and a Ki determined. Data are given in Table 5 as Ki [nM] for cyclophilins A and D, expressed in column 2 of Table 5 as Ki (cypA)/Ki (cypD).

[1] = test system: permeabilised HepG2 cells; experiment: Calcium retention capacity (CRC) assay in permeabilised HepG2 cells (MPTP opening); type: cell-based, human; parameters: CRC [10 μM]: unit not given here; conditions: compound at 10 μM; for CRC [10 μM]: digitonin permeabilised HepG2 cells; for CRC [10 μM] (ratio vs CsA): normalised to cyclosporin A, value in brackets
Procedure: The use of permeabilised cells means that inhibitory compounds that may not normally enter non-permeabilised cells are more likely to be active.
The calcium retention capacity (CRC) is a measure of the capability of mitochondria to retain calcium, primarily in the form of calcium phosphates, in the mitochondrial matrix.
In a CRC assay, the calcium indicator Calcium Green-5N (InVitrogen) is utilized. […] The assay is carried out in HepG2 (human hepatocellular carcinoma) cells which are digitonin permeabilized. Trains of calcium pulses (typically 5 μM additions) are added which results in a sudden increase in fluorescence which is then reduced by mitochondrial buffering. The cells will reach a point at which the calcium addition is no longer buffered, an indication that the MPTP has opened (mitochondrial permeability transition).
The experiment is performed with and without inhibitor. A compound that acts to inhibit the mitochondrial pore opening will result in a greater requirement for calcium to reach the transition point. The results are normalised to a positive control (cyclosporin A) in each experiment. The results are shown in column 3 of Table 5 as CRC [10 μM] (ratio vs CsA). The method of digitonin permeabilised whole cell CRC assay is similar to that used by Chiara et al. (PLoS One, March, 3, 3, e1852 (2008)).

SH-SY5Y cells = experiment: Thapsigargin treated cell death assay in SH-SY5Y cells; type: cell-based, human; conditions: compound at 10 μM, positive = protection from cell death, negative = compound toxicity
Description: Thapsigargin raises intracellular free calcium (Ca^2+) by potently inhibiting the endoplasmic reticulum Ca-ATPase, which sequesters Ca^2+ from the cytosol. The increased cytosolic Ca^2+ concentration is buffered by mitochondria by exchanging Ca^2+ for K, leading to depolarisation in the inner mitochondrial membrane and permeability transition.
The thapsigargin treated Jurkat cell death assay is a homogeneous 96 well plate based assay for cell death, instigated by the opening of the mitochondrial permeability transition pore (MPTP). The addition of thapsigargin to Jurkat cells results in an influx of calcium, the increase in intracellular calcium will initially be buffered by the mitochondria, but eventually the increasing calcium concentration will result in the opening of the MPTP, resulting in cell death.
CellTox™ Green is a dye which is unable to enter the cell until cell death leads to the loss of membrane integrity. Once this happens the CellTox™ Green enters the cell, binds to the cell's DNA and emits a fluorescent signal. […] Unless otherwise stated, the assay is typically run using a range of three compound concentrations of 1, 3 and 10 μM in triplicate and is read kinetically over a period of 24 hours. Compounds are added 30 minutes before the addition of thapsigargin. Compound only controls and positive control, cyclosporin A (CsA) (3 and 10 μM) are also included in the assay. Results are typically calculated at the 8 hour time point and the kinetic data is also reported.
The assay is carried out as described for the Jurkat cells but using the SH-SY5Y (human neuroblastoma) cell line instead of Jurkat cells. The results are shown in the fourth column of Table 5 (SY5Y [10 μM]% recovery). Positive numbers indicate protection from cell death, negative numbers indicate compound toxicity.

cyclophilin A = cyclophilin A (Homo sapiens (Human), UniProt P62937); experiment: Functional peptidyl prolyl isomerase (PPIase) spectrophotometric assay, cyclophilin A; type: biochemical; conditions: first value of CypA/D cell
Chain of cyclophilin A (P62937 whole entry, species assumed): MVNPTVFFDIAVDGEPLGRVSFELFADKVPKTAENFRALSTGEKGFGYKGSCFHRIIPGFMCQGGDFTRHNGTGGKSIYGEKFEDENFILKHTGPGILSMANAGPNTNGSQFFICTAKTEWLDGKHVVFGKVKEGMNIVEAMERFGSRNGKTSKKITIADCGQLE
Description: as §1

Chain of cyclophilin D (P30405 30-207, species assumed): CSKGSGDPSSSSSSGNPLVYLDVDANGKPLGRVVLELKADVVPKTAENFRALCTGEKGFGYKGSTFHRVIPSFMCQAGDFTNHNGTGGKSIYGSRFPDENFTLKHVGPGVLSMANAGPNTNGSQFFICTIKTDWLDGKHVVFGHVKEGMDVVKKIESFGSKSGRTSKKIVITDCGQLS

SMILES | Ki (cyclophilin D) [nM] | CRC [10 μM] [1] | CRC [10 μM] (ratio vs CsA) [1] | Ki (cyclophilin A) [nM] | SYSY [10 μM] % recovery (SH-SY5Y cells) [%] | also measured
C[C@@H]1NC(=O)[C@@H](CC2CCCNC2)OC(=O)C(C)(C)/C=C/c2ccc3ccc(nc3c2)N(C)NC(=O)[C@@H]2CCCN(N2)C1=O (single isomer, unassigned) [Compound (30)] | 450 | 10 | 0.33 | – | – | SYSY [10 μM] % recovery (SH-SY5Y cells; listed as 30): 10%
C[C@@H]1NC(=O)[C@@H](CC2CCCNC2)OC(=O)C(C)(C)/C=C/c2ccc3ccc(nc3c2)N(C)NC(=O)[C@@H]2CCCN(N2)C1=O (single isomer, unassigned) [Compound (31)] | 180 | 10 | 0.33 | 790 | – | SYSY [10 μM] % recovery (SH-SY5Y cells; listed as 31): 12%
C[C@@H]1NC(=O)[C@@H](CC2CCCNC2)OC(=O)C(C)(C)/C=C/c2ccc3ccc(nc3c2)N(C)N(C)C(=O)[C@@H]2CCCN(N2)C1=O (single isomer, unassigned) [Compound (33)] | 3800 | 5 | – | 280 | 9 | CRC [10 μM] (ratio vs CsA) ([1]; listed as 33): 0.2
CNC(=O)c1ccc(CC2OC(=O)C(C)(C)/C=C/c3ccc4ccc(nc4c3)N(C)NC(=O)[C@@H]3CCCN(N3)C(=O)[C@H](C)NC2=O)cc1 (single isomer, unassigned) [Compound (38)] | 190 | – | – | 160 | – | CRC [10 μM] ([1]; listed as 38): 7.5; CRC [10 μM] (ratio vs CsA) ([1]; listed as 38): 0.33; SYSY [10 μM] % recovery (SH-SY5Y cells; listed as 38): 8%
CNC(=O)c1ccc(CC2OC(=O)C(C)(C)/C=C/c3ccc4ccc(nc4c3)N(C)NC(=O)[C@@H]3CCCN(N3)C(=O)[C@H](C)NC2=O)cc1 (single isomer, unassigned) [Compound (39)] | 36 | – | – | 30 | – | CRC [10 μM] ([1]; listed as 39): 15; CRC [10 μM] (ratio vs CsA) ([1]; listed as 39): 0.67; SYSY [10 μM] % recovery (SH-SY5Y cells; listed as 39): 0%
C[C@@H]1NC(=O)C(Cc2ccc(C(=O)O)cc2)OC(=O)C(C)(C)/C=C/c2ccc3ccc(nc3c2)N(C)NC(=O)[C@@H]2CCCN(N2)C1=O (single isomer, unassigned) [Compound (40)] | – | – | – | – | – | CRC [10 μM] ([1]; listed as 40): 5; CRC [10 μM] (ratio vs CsA) ([1]; listed as 40): 0.33; SYSY [10 μM] % recovery (SH-SY5Y cells; listed as 40): 51%
C[C@@H]1NC(=O)C(Cc2ccc(C(=O)O)cc2)OC(=O)C(C)(C)/C=C/c2ccc3ccc(nc3c2)N(C)NC(=O)[C@@H]2CCCN(N2)C1=O (single isomer, unassigned) [Compound (41)] | 220 | – | – | 30 | – | CRC [10 μM] ([1]; listed as 41): 10; CRC [10 μM] (ratio vs CsA) ([1]; listed as 41): 0.67; SYSY [10 μM] % recovery (SH-SY5Y cells; listed as 41): 0%
C[C@@H]1NC(=O)C(Cc2cccc(N)n2)OC(=O)C(C)(C)/C=C/c2ccc3ccc(nc3c2)N(C)NC(=O)[C@@H]2CCCN(N2)C1=O (single isomer, unassigned) [Compound (51)] | – | – | – | – | – | SYSY [10 μM] % recovery (SH-SY5Y cells; listed as 51): 37%
C[C@@H]1NC(=O)C(Cc2cccc(N)n2)OC(=O)C(C)(C)/C=C/c2ccc3ccc(nc3c2)N(C)NC(=O)[C@@H]2CCCN(N2)C1=O (single isomer, unassigned) [Compound (52)] | – | – | – | – | – | SYSY [10 μM] % recovery (SH-SY5Y cells; listed as 52): 35%
CC(C)[C@H]1OC(=O)C/C=C/c2ccc3ccc(nc3c2)N(C)NC(=O)[C@@H]2CCCN(N2)C(=O)[C@H](C)NC1=O (stereo in doubt) [Compound (1)] | 54 | 35 | 0.95 | 25 | 8.4 | –
CC(C)[C@@H]1OC(=O)C(C)(C)/C=C/c2ccc3ccc(nc3c2)N(Cc2ccccc2)NC(=O)[C@@H]2CCCN(N2)C(=O)[C@H](C)NC1=O [Compound (9)] | 4.3 | 279.4 | 1 | 1.7 | 87.067 | –
CNC(=O)c1ccc(C[C@@H]2OC(=O)C(C)(C)/C=C/c3ccc4ccc(nc4c3)N(C)N(C)C(=O)[C@@H]3CCCN(N3)C(=O)[C@H](C)NC2=O)cc1 [Compound (12)] | 49 | 15 | 0.75 | 240 | 25 | –
COC[C@@]1(C)/C=C/c2ccc3ccc(nc3c2)N(C)NC(=O)[C@@H]2CCCN(N2)C(=O)[C@H](C)NC(=O)[C@H](C(C)C)OC1=O [Compound (13)] | 11 | 35 | 0.95 | 4.9 | 8.4 | –
COC[C@]1(C)/C=C/c2ccc3ccc(nc3c2)N(C)NC(=O)[C@@H]2CCCN(N2)C(=O)[C@H](C)NC(=O)[C@H](C(C)C)OC1=O [Compound (14)] | 25 | 40 | 1.09 | 17 | 9.3 | –
CC(C)[C@@H]1OC(=O)[C@](C)(Cc2ccccc2)/C=C/c2ccc3ccc(nc3c2)N(C)NC(=O)[C@@H]2CCCN(N2)C(=O)[C@H](C)NC1=O [Compound (16)] | 14 | 25 | 0.83 | 1.7 | 62 | –
C[C@@H]1NC(=O)[C@H](C2CCOCC2)OC(=O)C(C)(C)/C=C/c2ccc3ccc(nc3c2)N(C)NC(=O)[C@@H]2CCCN(N2)C1=O [Compound (59)] | 38 | 17.5 | 0.85 | 37 | – | –
